Data published in US12077503B2, “Substituted cyclic amides and their use as herbicides” (FMC CORPORATION, priority 2015, dated 2024).

Key:
Format in all cases: in vivo
[1] = system: barnyardgrass (Echinochloa crus-galli); test: Test G Pre-Emergence Protocol; details: Echinochloa crus-galli, pre-emergence, 312 h, evaluated after 13 days; for pest or weed control at 15.625 g/ha: 15.625 g ai/ha, read-out: Barnyard grass damage rating (100=total damage to plant; 0=no damage to plant); for pest or weed control at 62.5 g/ha: 62.5 g ai/ha, 100=total damage to plant, 0=no damage to plant, read-out: plant damage rating, Barnyardgrass; for pest or weed control at 250 g/ha: 250 g ai/ha, read-out: Barnyardgrass damage rating (100=total damage to plant; 0=no damage to plant)
Summary of the method: (§1)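 Glasshouse pre-emergence test: soil-sown seeds, sprayed after 1 d at 15.625, 62.5 or 250 g/ha. Conditions 24/16° C day/night, 14 h light, 65% humidity, watering twice daily. Rating 13 d post-spray (100 = total damage).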

[2] = system: corn (Zea mays); test: Test G Pre-Emergence Protocol; details: Zea mays, pre-emergence, 312 h, evaluated after 13 days; for plant injury at 15.625 g/ha: 15.625 g ai/ha; for plant injury at 15.625 g/ha / plant injury at 250 g/ha: read-out: Corn damage rating (100=total damage to plant; 0=no damage to plant); for plant injury at 62.5 g/ha: 62.5 g ai/ha, 100=total damage to plant, 0=no damage to plant, read-out: plant damage rating, Corn; for plant injury at 250 g/ha: 250 g ai/ha
Summary of the method: as §1

[3] = system: giant foxtail (Setaria faberi); test: Test G Pre-Emergence Protocol; details: Setaria faberi, pre-emergence, 312 h, evaluated after 13 days; for pest or weed control at 15.625 g/ha: 15.625 g ai/ha; for pest or weed control at 15.625 g/ha / pest or weed control at 250 g/ha: read-out: Foxtail, Giant damage rating (100=total damage to plant; 0=no damage to plant); for pest or weed control at 62.5 g/ha: 62.5 g ai/ha, 100=total damage to plant, 0=no damage to plant, read-out: plant damage rating, Foxtail, Giant; for pest or weed control at 250 g/ha: 250 g ai/ha
Summary of the method: as §1

[4] = system: ivy-leaved morning glory (Ipomoea hederacea); test: Test G Pre-Emergence Protocol; details: Ipomoea, pre-emergence, 312 h, evaluated after 13 days; for pest or weed control at 15.625 g/ha: 15.625 g ai/ha, read-out: Morning-glory, Ivy-leaved damage rating (100=total damage to plant; 0=no damage to plant); for pest or weed control at 62.5 g/ha: 62.5 g ai/ha, 100=total damage to plant, 0=no damage to plant, read-out: plant damage rating, Morningglory, Ivy-leaved; for pest or weed control at 250 g/ha: 250 g ai/ha, read-out: Morningglory, Ivy-leaved damage rating (100=total damage to plant; 0=no damage to plant)
Summary of the method: as §1

[5] = system: redroot pigweed (Amaranthus retroflexus); test: Test G Pre-Emergence Protocol; details: Amaranthus retroflexus, pre-emergence, 312 h, evaluated after 13 days; for pest or weed control at 15.625 g/ha: 15.625 g ai/ha; for pest or weed control at 15.625 g/ha / pest or weed control at 250 g/ha: read-out: Pigweed, Redroot damage rating (100=total damage to plant; 0=no damage to plant); for pest or weed control at 62.5 g/ha: 62.5 g ai/ha, 100=total damage to plant, 0=no damage to plant, read-out: plant damage rating, Pigweed, Redroot; for pest or weed control at 250 g/ha: 250 g ai/ha
Summary of the method: as §1

[6] = system: velvetleaf (Abutilon theophrasti); test: Test G Pre-Emergence Protocol; details: Abutilon theophrasti, pre-emergence, 312 h, evaluated after 13 days; for pest or weed control at 15.625 g/ha: 15.625 g ai/ha; for pest or weed control at 15.625 g/ha / pest or weed control at 250 g/ha: read-out: Velvetleaf damage rating (100=total damage to plant; 0=no damage to plant); for pest or weed control at 62.5 g/ha: 62.5 g ai/ha, 100=total damage to plant, 0=no damage to plant, read-out: plant damage rating, Velvetleaf; for pest or weed control at 250 g/ha: 250 g ai/ha
Summary of the method: as §1

[7] = system: barnyardgrass (Echinochloa crus-galli); test: Test G Post-Emergence Protocol; details: Echinochloa crus-galli, post-emergence, 312 h; for pest or weed control at 15.625 g/ha: 15.625 g ai/ha, evaluated after 13 days (100=total damage to plant; 0=no damage to plant), read-out: Barnyardgrass damage rating; for pest or weed control at 62.5 g/ha: 62.5 g ai/ha, read-out: Barnyardgrass damage rating (100=total damage to plant; 0=no damage to plant); for pest or weed control at 62.5 g/ha / pest or weed control at 250 g/ha: evaluated after 13 days; for pest or weed control at 250 g/ha: 250 g ai/ha, read-out: damage to plant, Barnyardgrass (100=total damage to plant; 0=no damage to plant)
Summary of the method: (§2)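 Sow in soil; grow 8 d (24/16 °C, 14 h light, 65% humidity); spray 15.625/62.5/250 g/ha in acetone:water 50:50 + 0.5% Tween 20; grow on, water twice daily; score damage 0–100 at 13 d.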

[8] = system: corn (Zea mays); test: Test G Post-Emergence Protocol; details: Zea mays, post-emergence, 312 h; for plant injury at 15.625 g/ha: 15.625 g ai/ha, evaluated after 13 days (100=total damage to plant; 0=no damage to plant), read-out: Corn damage rating; for plant injury at 62.5 g/ha: 62.5 g ai/ha, read-out: Corn damage rating (100=total damage to plant; 0=no damage to plant); for plant injury at 62.5 g/ha / plant injury at 250 g/ha: evaluated after 13 days; for plant injury at 250 g/ha: 250 g ai/ha, read-out: damage to plant, Corn (100=total damage to plant; 0=no damage to plant)
Summary of the method: as §2

[9] = system: giant foxtail (Setaria faberi); test: Test G Post-Emergence Protocol; details: Setaria faberi, post-emergence, 312 h; for pest or weed control at 15.625 g/ha: 15.625 g ai/ha, evaluated after 13 days (100=total damage to plant; 0=no damage to plant), read-out: Foxtail, Giant damage rating; for pest or weed control at 62.5 g/ha: 62.5 g ai/ha, read-out: Foxtail, Giant damage rating (100=total damage to plant; 0=no damage to plant); for pest or weed control at 62.5 g/ha / pest or weed control at 250 g/ha: evaluated after 13 days; for pest or weed control at 250 g/ha: 250 g ai/ha, read-out: damage to plant, Foxtail, Giant (100=total damage to plant; 0=no damage to plant)
Summary of the method: as §2

[10] = system: ivy-leaved morning glory (Ipomoea hederacea); test: Test G Post-Emergence Protocol; details: Ipomoea, post-emergence, 312 h; for pest or weed control at 15.625 g/ha: 15.625 g ai/ha, evaluated after 13 days (100=total damage to plant; 0=no damage to plant), read-out: Morningglory, Ivy-leaved damage rating; for pest or weed control at 62.5 g/ha: 62.5 g ai/ha, read-out: Morningglory, Ivy-leaved damage rating (100=total damage to plant; 0=no damage to plant); for pest or weed control at 62.5 g/ha / pest or weed control at 250 g/ha: evaluated after 13 days; for pest or weed control at 250 g/ha: 250 g ai/ha, read-out: damage to plant, Morningglory, Ivy-leaved (100=total damage to plant; 0=no damage to plant)
Summary of the method: as §2

[11] = system: redroot pigweed (Amaranthus retroflexus); test: Test G Post-Emergence Protocol; details: Amaranthus retroflexus, post-emergence, 312 h; for pest or weed control at 15.625 g/ha: 15.625 g ai/ha, evaluated after 13 days (100=total damage to plant; 0=no damage to plant), read-out: Pigweed, Redroot damage rating; for pest or weed control at 62.5 g/ha: 62.5 g ai/ha, read-out: Pigweed, Redroot damage rating (100=total damage to plant; 0=no damage to plant); for pest or weed control at 62.5 g/ha / pest or weed control at 250 g/ha: evaluated after 13 days; for pest or weed control at 250 g/ha: 250 g ai/ha, read-out: damage to plant, Pigweed, Redroot (100=total damage to plant; 0=no damage to plant)
Summary of the method: as §2

[12] = system: velvetleaf (Abutilon theophrasti); test: Test G Post-Emergence Protocol; details: Abutilon theophrasti, post-emergence, 312 h; for pest or weed control at 15.625 g/ha: 15.625 g ai/ha, evaluated after 13 days (100=total damage to plant; 0=no damage to plant), read-out: Velvetleaf damage rating; for pest or weed control at 62.5 g/ha: 62.5 g ai/ha, read-out: Velvetleaf damage rating (100=total damage to plant; 0=no damage to plant); for pest or weed control at 62.5 g/ha / pest or weed control at 250 g/ha: evaluated after 13 days; for pest or weed control at 250 g/ha: 250 g ai/ha, read-out: damage to plant, Velvetleaf (100=total damage to plant; 0=no damage to plant)
Summary of the method: as §2

Structure (SMILES)	pest or weed control at 15.625 g/ha [1] [%]	pest or weed control at 62.5 g/ha [1] [%]	pest or weed control at 250 g/ha [1] [%]	plant injury at 15.625 g/ha [2] [%]	plant injury at 62.5 g/ha [2] [%]	plant injury at 250 g/ha [2] [%]	pest or weed control at 15.625 g/ha [3] [%]	pest or weed control at 62.5 g/ha [3] [%]	pest or weed control at 250 g/ha [3] [%]	pest or weed control at 15.625 g/ha [4] [%]	pest or weed control at 62.5 g/ha [4] [%]	pest or weed control at 250 g/ha [4] [%]	pest or weed control at 15.625 g/ha [5] [%]	pest or weed control at 62.5 g/ha [5] [%]	pest or weed control at 250 g/ha [5] [%]	pest or weed control at 15.625 g/ha [6] [%]	pest or weed control at 62.5 g/ha [6] [%]	pest or weed control at 250 g/ha [6] [%]	pest or weed control at 15.625 g/ha [7] [%]	pest or weed control at 62.5 g/ha [7] [%]	also measured
CN1C[C@@H](c2ccc(C(F)(F)F)cc2)[C@H](C(=O)Nc2cnn(C)n2)C1=O (racemic) [Compound 1531]	0	0	0	0	0	0	0	0	0	0	0	0	0	0	0	0	0	0	0	0	pest or weed control at 250 g/ha [7]: 0%; plant injury at 15.625 g/ha [8]: 0%; plant injury at 62.5 g/ha [8]: 0%; plant injury at 250 g/ha [8]: 10%; pest or weed control at 15.625 g/ha [9]: 0%; pest or weed control at 62.5 g/ha [9]: 0%; pest or weed control at 250 g/ha [9]: 0%; pest or weed control at 15.625 g/ha [10]: 0%; pest or weed control at 62.5 g/ha [10]: 0%; pest or weed control at 250 g/ha [10]: 0%; pest or weed control at 15.625 g/ha [11]: 0%; pest or weed control at 62.5 g/ha [11]: 0%; pest or weed control at 250 g/ha [11]: 0%; pest or weed control at 15.625 g/ha [12]: 0%; pest or weed control at 62.5 g/ha [12]: 0%; pest or weed control at 250 g/ha [12]: 0%
CN1C[C@@H](c2ccc(C(F)(F)F)cc2)[C@H](C(=O)Nc2c[nH]nc2C(F)(F)F)C1=O (racemic) [Compound 1535]	0	0	0	0	0	0	0	0	0	0	0	0	0	20	40	0	0	0	0	0	pest or weed control at 250 g/ha [7]: 0%; plant injury at 15.625 g/ha [8]: 0%; plant injury at 62.5 g/ha [8]: 0%; plant injury at 250 g/ha [8]: 10%; pest or weed control at 15.625 g/ha [9]: 0%; pest or weed control at 62.5 g/ha [9]: 0%; pest or weed control at 250 g/ha [9]: 0%; pest or weed control at 15.625 g/ha [10]: 0%; pest or weed control at 62.5 g/ha [10]: 0%; pest or weed control at 250 g/ha [10]: 0%; pest or weed control at 15.625 g/ha [11]: 0%; pest or weed control at 62.5 g/ha [11]: 10%; pest or weed control at 250 g/ha [11]: 30%; pest or weed control at 15.625 g/ha [12]: 0%; pest or weed control at 62.5 g/ha [12]: 0%; pest or weed control at 250 g/ha [12]: 0%
CN1C[C@@H](c2ccc(C(F)(F)F)cc2)[C@H](C(=O)Nc2cccc(C(F)(F)F)n2)C1=O (racemic) [Compound 1563]	0	0	0	0	0	0	0	0	0	0	0	0	0	0	0	0	0	0	0	0	pest or weed control at 250 g/ha [7]: 0%; plant injury at 15.625 g/ha [8]: 0%; plant injury at 62.5 g/ha [8]: 0%; plant injury at 250 g/ha [8]: 0%; pest or weed control at 15.625 g/ha [9]: 0%; pest or weed control at 62.5 g/ha [9]: 0%; pest or weed control at 250 g/ha [9]: 0%; pest or weed control at 15.625 g/ha [10]: 0%; pest or weed control at 62.5 g/ha [10]: 0%; pest or weed control at 250 g/ha [10]: 0%; pest or weed control at 15.625 g/ha [11]: 0%; pest or weed control at 62.5 g/ha [11]: 0%; pest or weed control at 250 g/ha [11]: 0%; pest or weed control at 15.625 g/ha [12]: 0%; pest or weed control at 62.5 g/ha [12]: 0%; pest or weed control at 250 g/ha [12]: 0%
